Measured values taken from patent publication US20110152267A1, “Compositions and Methods for Treating Hyperproliferative Disorders” (Texas Tech University System, priority 2009, published 2011).

Experiments:
Format in all cases: cell-based, human
[1] = test system: CHLA-266 primitive neuroectodermal tumor (PNET) cell line; assay: DIMSCAN cytotoxicity, fenretinide + L-threo-sphinganines 3:1 (Example B9); conditions: 96 h
Method: (§1) Cytotoxicity Assay—Once again, cytotoxicity is determined using the DIMSCAN assay system (R. Proffitt et al., Cytometry 24, 204-213 (1996); T. Frgala et al., Mol Cancer Ther. 6:886-97, 2007). The system employs digital imaging microscopy to quantify viable cells, which selectively accumulate fluorescein diacetate to become brightly fluorescent. The system is capable of measuring cytotoxicity over a 4-5 log dynamic range by quenching the residual fluorescence of dead and dying cells with eosin Y and quantifying the total fluorescence of viable cells using digital thresholding. Measured fluorescence is directly proportionate to the number of viable cells. A comparison of the total fluorescence of a drug-treated cell population to the fluorescence of a similar number of untreated cells yields a survival fraction. In brief, 2000 to 10,000 cells/well (depending on size and growth rates) are replicate plated into 60 wells of a 96-well tissue culture plate in 0.1 mL of whole medium and allowed to attach overnight. Drug(s) are then added in 0.05 mL of whole medium to the final concentrations indicated. Drugs (fenretinide, and various chain length L-threo-sphinganines) were tested both as single agents and in a 3:1 ratio of fenretinide:sphinganine. C18-L-threo-sphinganine, or “safingol,” was also tested and results shown for reference. There are 12 wells treated per drug concentration. Twelve wells receive drug vehicle-only to the appropriate final concentration and serve as controls for the plate. Cells are incubated for 96 hours at 37° C. in ambient air with 5% CO2. Fluorescein diacetate is then added to each well in 0.05 mL media to a final concentration of 8 microgram/mL. Cells are incubated for a further 15 minutes at 37° C. and 0.03 mL of 0.5% eosin Y is added to each well. Total fluorescence of viable cells is then measured by digital imaging microscopy. Results were graphed as the ratio of the fluoresecence of drug-treated wells to non-drug treated control wells (i.e., Survival Fraction). All tests were performed at least twice. Representative results are shown.
(§2) The Combination Index (CI) is a term to describe mathematical modeling of the pharmacologic effects on cytotoxicity (cell death) of two drugs in combination based. Cytotoxic “synergy” is defined as a cell death affect which is greater than would be expected from a simple product of the single agent cytotoxicities alone (i.e. an “additive” effect). By Chou-Talalay analysis, a CI<0.9 on a Fraction Affected (“Fa”, i.e. fraction of cells killed) indicates synergy, with smaller numbers indicating greater synergy; a CI of 0.9-1.1 signifies an additive or near-additive effect; and a CI>1.1 means the drug combination is antagonistic.
Fenretinide and L-threo-sphinganines tested in human primitive neuroectodermal tumor (PNET) (brain cancer) cell line, CHLA-266.

[2] = test system: NCI-H-1792 lung adenocarcinoma cell line; assay: DIMSCAN cytotoxicity, fenretinide + L-threo-sphinganines 3:1 (Example B12); conditions: 96 h
Method: as §1, §2
Fenretinide and L-threo-sphinganines tested in human lung adenocarcinoma (lung cancer) cell line, NCI-H-1792.

[3] = test system: OE-19 esophageal adenocarcinoma cell line; assay: DIMSCAN cytotoxicity, fenretinide + L-threo-sphinganines 3:1 (Example B19)
Method: as §1, §2
(§3) Fenretinide and L-threo-sphinganines tested in human esophageal adenocarcinoma (esophagus cancer) cell lines, OE-19 and OE-33.

[4] = test system: OE-33 esophageal adenocarcinoma cell line; assay: as above
Method: as §1, §2, §3

[5] = test system: drug-resistant CHLA-90 neuroblastoma cancer cell line; assay: DIMSCAN cytotoxicity dose-response with fenretinide (Examples A, FIGS. 1, 7, 12); conditions: at one or more doses, +96 hrs
Method: Cytotoxicity Assay: Cytotoxicity in cell lines was determined using a fluorescence-based assay employing digital imaging microscopy (DIMSCAN)(after Fragala, et al, Mol Cancer Ther, 6:886-897, 2007). DIMSCAN quantitates viable cells which selectively accumulate fluorescein diacetate and is capable of measuring cytotoxicity over a 4-5 log dynamic range by quantifying total fluorescence per well (which is proportional to viable, clonogenic cells) after eliminating background fluorescence using digital thresholding and eosin Y quenching. Briefly, cell lines were seeded into 96-well plates in 100 µL of complete culture medium (10-20% serum) per well. Cells were incubated overnight in 2%, 5% or 20% oxygen (room air) prior to addition of drugs in […] volumes of complete medium to various final drug concentrations in replicates of 12 wells per concentration. In assays employing D-threo-PPMP, PPMP was employed at a fixed, minimally-toxic, final concentration of 10 μM in each well. Control wells received ethanol (final concentration=0.12%-0.20%) in complete medium equivalent to the maximum final ethanol concentration of drug-treated wells. Plates were incubated at various oxygen concentrations to simulate physiological hypoxia (i.e., 2% oxygen=typical solid tumor oxygen levels; 5%=bone marrow oxygen levels for leukemias; 20% room air=supraphysiological oxygen for comparison with typical laboratory culture conditions). Plates were assayed at 3-4 days after initiating drug exposure depending on the growth properties of each cell line, to allow for maximum cell death and outgrowth of surviving cells. To measure cytotoxicity, FDA (stock solution of 1 mg/ml in DMSO) was added, in 50 µL of complete medium per well, to a final concentration of 10 µg/ml. The plates were incubated for an additional 15-30 minutes at 37 C and then 30 µL of eosin Y (0.5% in normal saline) was added per well. Total fluorescence of each well was then measured using digital imaging microscopy. […]

[6] = test system: MOLT-4 ALL leukemia cell line; assay: DIMSCAN cytotoxicity dose-response with fenretinide, with or without D-threo-PPMP (Examples A, FIGS. 6, 24-26); conditions: +96 hrs; for C.I. of D-threo-PPMP with fenretinide+L-threo-sphinganine (three drug combination): 2% oxygen, D-threo-PPMP fixed 10 uM, at most doses
Method: Cytotoxicity Assay: Cytotoxicity in cell lines was determined using a fluorescence-based assay employing digital imaging microscopy (DIMSCAN)(after Fragala, et al, Mol Cancer Ther, 6:886-897, 2007). DIMSCAN quantitates viable cells which selectively accumulate fluorescein diacetate and is capable of measuring cytotoxicity over a 4-5 log dynamic range by quantifying total fluorescence per well (which is proportional to viable, clonogenic cells) after eliminating background fluorescence using digital thresholding and eosin Y quenching. Briefly, cell lines were seeded into 96-well plates in 100 µL of complete culture medium (10-20% serum) per well. Cells were incubated overnight in 2%, 5% or 20% oxygen (room air) prior to addition of drugs in […] volumes of complete medium to various final drug concentrations in replicates of 12 wells per concentration. In assays employing D-threo-PPMP, PPMP was employed at a fixed, minimally-toxic, final concentration of 10 μM in each well. Control wells received ethanol (final concentration=0.12%-0.20%) in complete medium equivalent to the maximum final ethanol concentration of drug-treated wells. Plates were incubated at various oxygen concentrations to simulate physiological hypoxia (i.e., 2% oxygen=typical solid tumor oxygen levels; 5%=bone marrow oxygen levels for leukemias; 20% room air=supraphysiological oxygen for comparison with typical laboratory culture conditions). Plates were assayed at 3-4 days after initiating drug exposure depending on the growth properties of each cell line, to allow for maximum cell death and outgrowth of surviving cells. To measure cytotoxicity, FDA (stock solution of 1 mg/ml in DMSO) was added, in 50 µL of complete medium per well, to a final concentration of 10 µg/ml. The plates were incubated for an additional 15-30 minutes at 37 C and then 30 µL of eosin Y (0.5% in normal saline) was added per well. Total fluorescence of each well was then measured using digital imaging microscopy.
FIGS. 1 to 26 illustrate the effect (Examples A1 through A26) of the claimed invention and were carried out using the procedures disclosed herein.

[7] = 4-HPR 1.5 μM + L-threo-sphinganine 0.5 μM
[8] = 4-HPR 3 μM + L-threo-sphinganine 1 μM
[9] = 4-HPR 6 μM + L-threo-sphinganine 2 μM
[10] = 4-HPR 9 μM + L-threo-sphinganine 3 μM

| Compound | CI (Combination Index) [1, 7] | Fa (fraction affected) [1, 7] | CI (Combination Index) [1, 8] | Fa (fraction affected) [1, 8] | CI (Combination Index) [1, 9] | Fa (fraction affected) [1, 9] | CI (Combination Index) [1, 10] | Fa (fraction affected) [1, 10] | CI (Combination Index) [2, 7] | Fa (fraction affected) [2, 7] | CI (Combination Index) [2, 8] | Fa (fraction affected) [2, 8] | CI (Combination Index) [2, 9] | Fa (fraction affected) [2, 9] | CI (Combination Index) [2, 10] | Fa (fraction affected) [2, 10] | CI [3, 7] | Fa [3, 7] | CI [3, 8] | Fa [3, 8] | further results |
| --- | --- | --- | --- | --- | --- | --- | --- | --- | --- | --- | --- | --- | --- | --- | --- | --- | --- | --- | --- | --- | --- |
| CCCCCCCCC[C@H](O)[C@@H](N)CO [C12] | 0.6 | 0.464 | 0.6 | 0.788 | 0.7 | 0.951 | 1.0 | 0.965 | 1.0 | 0.217 | 1.3 | 0.642 | 1.4 | 0.951 | 1.8 | 0.975 | 1.4 | 0.345 | 2.9 | 0.325 | CI [3, 9]: 5.5; Fa [3, 9]: 0.506; CI [3, 10]: >>1; Fa [3, 10]: 0.632; CI [4, 7]: 1.0; Fa [4, 7]: 0.376; CI [4, 8]: 1.0; Fa [4, 8]: 0.618; CI [4, 9]: 1.3; Fa [4, 9]: 0.758; CI [4, 10]: 1.1; Fa [4, 10]: 0.925 |
| CCCCCCCCCCC[C@H](O)[C@@H](N)CO [C14] | 0.6 | 0.342 | 0.9 | 0.739 | 1.1 | 0.968 | 1.6 | 0.974 | – | – | – | – | – | – | – | – | – | – | – | – | – |
| CCCCCCCCCCCC[C@H](O)[C@@H](N)CO [C15] | 0.5 | 0.657 | 1.0 | 0.701 | 1.2 | 0.906 | 0.4 | 0.999 | – | – | – | – | – | – | – | – | – | – | – | – | – |
| CCCCCCCCCCCCCC[C@H](O)[C@@H](N)CO [C17, (2S,3S)-2-amino-1,3-heptadecanediol] | 0.5 | 0.502 | 0.5 | 0.913 | 0.5 | 0.990 | 0.7 | 0.989 | 1.1 | 0.112 | 1.0 | 0.661 | 0.9 | 0.974 | 1.0 | 0.993 | 0.3 | 0.314 | 0.3 | 0.462 | CI [3, 9]: 0.2; Fa [3, 9]: 0.689; CI [3, 10]: 0.2; Fa [3, 10]: 0.743; CI [4, 7]: 1.5; Fa [4, 7]: 0.376; CI [4, 8]: 1.1; Fa [4, 8]: 0.767; CI [4, 9]: 0.8; Fa [4, 9]: 0.945; CI [4, 10]: 0.4; Fa [4, 10]: 0.991; C.I. (Combination Index) with fenretinide [5]: < 1; C.I. of D-threo-PPMP with fenretinide+L-threo-sphinganine (three drug combination) [6]: < 1; C.I. (Combination Index) with fenretinide ([6]; at one or more doses): < 1 |
| CCCCCCCCCCCCCCC[C@H](O)[C@@H](N)CO [C18, (2S,3S)-2-amino-1,3-octadecanediol, reference compound] | 0.5 | 0.604 | 0.8 | 0.880 | 1.1 | 0.984 | 1.5 | 0.989 | 1.2 | 0.243 | 0.8 | 0.756 | 0.6 | 0.983 | 0.4 | 0.999 | 0.7 | 0.281 | 0.4 | 0.464 | CI [3, 9]: 0.2; Fa [3, 9]: 0.709; CI [3, 10]: 0.2; Fa [3, 10]: 0.799 |
| CCCCCCCCCCCCCCCC[C@H](O)[C@@H](N)CO [C19, (2S,3S)-2-amino-1,3-nonadecanediol] | – | – | – | – | – | – | – | – | 1.1 | 0.138 | 1.1 | 0.736 | 1.2 | 0.965 | 0.9 | 0.993 | 1.0 | 0.094 | 1.6 | 0.109 | CI [3, 9]: 1.6; Fa [3, 9]: 0.173; CI [3, 10]: 1.1; Fa [3, 10]: 0.272; CI [4, 7]: 1.9; Fa [4, 7]: 0.299; CI [4, 8]: 1.6; Fa [4, 8]: 0.582; CI [4, 9]: 0.6; Fa [4, 9]: 0.951; CI [4, 10]: 0.3; Fa [4, 10]: 0.989; C.I. (Combination Index) with fenretinide [5]: < 1; C.I. of D-threo-PPMP with fenretinide+L-threo-sphinganine (three drug combination) [6]: < 1 |
| CCCCCCCCCCCCCCCCC[C@H](O)[C@@H](N)CO [C20, (2S,3S)-2-amino-1,3-icosanediol] | – | – | – | – | – | – | – | – | 0.9 | 0.287 | 0.7 | 0.852 | 0.7 | 0.972 | 0.5 | 0.998 | 3.2 | 0.352 | 6.6 | 0.438 | CI [3, 9]: >>1; Fa [3, 9]: 0.708; CI [3, 10]: >>1; Fa [3, 10]: 0.771; CI [4, 7]: 1.9; Fa [4, 7]: 0.255; CI [4, 8]: 1.9; Fa [4, 8]: 0.445; CI [4, 9]: 0.8; Fa [4, 9]: 0.883; CI [4, 10]: 0.2; Fa [4, 10]: 0.993; C.I. (Combination Index) with fenretinide [5]: < 1; C.I. of D-threo-PPMP with fenretinide+L-threo-sphinganine (three drug combination) [6]: < 1 |
